Test results published in article PMC3900681, “Flock House Virus RNA Polymerase Initiates RNA Synthesis De Novo and Possesses a Terminal Nucleotidyl Transferase Activity” (PLoS ONE, 2014).

Biological target: T1, FHV protein A (MBP-Pro A) (Flock House virus, UniProt Q66929)
T1 construct: N-terminal MBP fusion (pMAL-c2X, EcoRI-SalI), tag kept; E. coli, amylose resin; ~155 kDa
Test: RdRP assay, DIG-labelled RNA product on denaturing gel
Assay type: biochemical
Settings: blocked (+)-RNA1_1-191 template, 250 uM DIG RNA Labelling Mix, 1 mM MnCl2, pH 8.0, 30 C, 90 min

T1 sequence (Q66929 whole entry, the tested form may be a part): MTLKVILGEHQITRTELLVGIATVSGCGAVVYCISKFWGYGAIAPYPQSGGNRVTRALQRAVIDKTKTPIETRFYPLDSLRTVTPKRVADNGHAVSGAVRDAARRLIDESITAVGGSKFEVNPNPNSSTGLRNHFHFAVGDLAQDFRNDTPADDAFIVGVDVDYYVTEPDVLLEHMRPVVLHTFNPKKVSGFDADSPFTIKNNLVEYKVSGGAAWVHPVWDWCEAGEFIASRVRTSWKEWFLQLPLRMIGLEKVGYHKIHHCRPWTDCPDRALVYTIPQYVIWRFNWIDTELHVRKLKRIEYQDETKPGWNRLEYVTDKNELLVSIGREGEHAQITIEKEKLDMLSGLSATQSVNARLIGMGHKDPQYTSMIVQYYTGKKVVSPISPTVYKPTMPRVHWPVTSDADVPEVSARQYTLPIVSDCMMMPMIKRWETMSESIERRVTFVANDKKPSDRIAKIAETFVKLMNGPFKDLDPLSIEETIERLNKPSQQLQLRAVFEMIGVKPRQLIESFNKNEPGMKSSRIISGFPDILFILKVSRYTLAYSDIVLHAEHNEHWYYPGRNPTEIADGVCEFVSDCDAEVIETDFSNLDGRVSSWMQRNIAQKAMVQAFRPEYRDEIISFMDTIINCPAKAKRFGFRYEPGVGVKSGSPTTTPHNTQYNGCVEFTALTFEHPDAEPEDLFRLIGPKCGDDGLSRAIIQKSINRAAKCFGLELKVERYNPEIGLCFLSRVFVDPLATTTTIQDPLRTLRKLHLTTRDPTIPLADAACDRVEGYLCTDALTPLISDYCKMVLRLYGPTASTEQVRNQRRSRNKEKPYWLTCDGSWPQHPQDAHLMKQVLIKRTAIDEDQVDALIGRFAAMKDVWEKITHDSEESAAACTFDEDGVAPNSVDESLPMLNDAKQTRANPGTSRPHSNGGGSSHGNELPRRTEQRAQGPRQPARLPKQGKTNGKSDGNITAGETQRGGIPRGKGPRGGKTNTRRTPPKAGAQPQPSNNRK

O=C(O)CP(=O)(O)O [PAA, phosphonoacetic acid]
inhibition, dose-response: PAA dramatically inhibited the RdRP activity of FHV protein A in a dose-response manner
